Assay results: patent US8933075B2, “Compounds useful as antiviral agents, compositions, and methods of use” (priority 2010, dated 2015)
Like-named read-outs stand apart in the source and are kept apart here.

Tested on: A/Udorn/72 (H3N2) virus
Assay: Plaque assay in MDCK cells: EC50 by reduction of plaque number
Type: cell-based, influenza virus

Structure (SMILES) | EC50 (MDCK) | EC50
O=C1/C(=C/c2ccc(-c3c(O)c4cc(O)ccc4oc3=O)o2)SC(=S)N1C1CC2CCC1C2 (stereo not drawn) [Compound 325] | < 100 nM | 
COc1cccc(-c2cc(CCCCCOC(=O)[C@H](CC(N)=O)NC(=O)OC(C)(C)C)c(/C=C3\SC(=S)N(C4CC5CCC4C5)C3=O)s2)c1 (stereo partly drawn) [Compound 313] | < 100 nM | 
COc1cc(COc2ccc3oc(=O)c(-c4ccc(/C=C5\SC(=S)N(C6CC7CCC6C7)C5=O)s4)c(O)c3c2)cc(OC)c1 (stereo not drawn) [Compound 315] | < 100 nM | 
O=C1/C(=C/c2coc3ccc(Br)cc3c2=O)SC(=S)N1C1CCC2CCCCC2C1 (stereo not drawn) [Compound 206] | < 100 nM | 
COc1cc(OC)cc(-c2cc(CCCCOC(=O)[C@]3(O)C[C@@H](O)[C@@H](O)[C@H](O)C3)c(/C=C3\SC(=S)N(C4CC5CCC4C5)C3=O)o2)c1 (stereo partly drawn) [Compound 357] | < 100 nM | 
O=C1/C(=C/c2cc3ccccc3o2)SC(=S)N1C1CC2CCC1C2 (stereo not drawn) [Compound 217] | < 100 nM | 
COc1ccc(-c2cc(CCCO)c(/C=C3\SC(=O)N(C4CC5CCC4C5)C3=O)o2)cc1OCC(=O)N1CCC[C@H]1C(=O)O (stereo partly drawn) [Compound 349] | < 100 nM | 
CC(C)(C)OC(=O)N[C@@H](CC(N)=O)C(=O)OCCCCCc1cc(-c2ccc(Cl)cc2)sc1/C=C1\SC(=S)N(C2C3CC4CC(C3)CC2C4)C1=O (stereo partly drawn) [Compound 308] | < 100 nM | 
CCOC(=O)c1c(F)ccc(-c2ccc(/C=C3\SC(=S)N(C4CCCC4)C3=O)o2)c1F [Compound 45] | < 100 nM | 
COc1cc(OC)cc(-c2cc(CCCN3CCOCC3)c(/C=C3\SC(=S)N(C4C5CC6CC(C5)CC4C6)C3=O)o2)c1 (stereo not drawn) [Compound 182] | < 100 nM | 
O=C1/C(=C/c2sc(-c3cccc(Cl)c3)cc2C#CCCCO)SC(=S)N1C1CC2CCC1C2 (stereo not drawn) [Compound 286] | < 100 nM | 
COc1ccc(-c2ccc(/C=C3\SC(=S)N(C4CC5CCC4C5)C3=O)o2)cc1OCC(=O)O (stereo not drawn) [Compound 35] | < 100 nM | 
O=C1/C(=C/c2sc(-c3cccc(Cl)c3)cc2CCCCCO)SC(=S)N1C1CC2CCC1C2 (stereo not drawn) [Compound 277] | < 100 nM | 
O=C1/C(=C/c2cc(C#CCCCO)c(-c3ccc(Cl)cc3)s2)SC(=S)N1C1CC2CCC1C2 (stereo not drawn) [Compound 288] | < 100 nM | 
COc1cc(OC)cc(-c2cc(CCCCCOC(=O)[C@H](CC(N)=O)NC(=O)OC(C)(C)C)c(/C=C3\SC(=S)N(C4CC5CCC4C5)C3=O)o2)c1 (stereo partly drawn) [Compound 150] | < 100 nM | 
COc1cc(OCC(=O)N2CCC[C@H]2C(=O)O)cc(-c2cc(CCCO)c(/C=C3\SC(=S)N(C4CC5CCC4C5)C3=O)o2)c1 (stereo partly drawn) [Compound 350] | < 100 nM | 
COc1cc(OC)cc(-c2cc(CCCCCCO)c(/C=C3\SC(=S)N(C4C5CC6CC(C5)CC4C6)C3=O)o2)c1 (stereo not drawn) [Compound 112] | < 100 nM | 
N=C(N)NCCCc1cc(-c2ccc(Cl)cc2)oc1/C=C1\SC(=S)N(C2CC3CCC2C3)C1=O (stereo not drawn) [Compound 197] | < 100 nM | 
CC(C)(C)OC(=O)N[C@@H](CC(N)=O)C(=O)OCCCc1cc(-c2ccc(Cl)cc2)oc1/C=C1\SC(=S)N(C2CC3CCC2C3)C1=O (stereo partly drawn) [Compound 148] | < 100 nM | 
O=C1/C(=C/c2cc3cc(Br)ccc3[nH]2)SC(=S)N1C1C2CC3CC(C2)CC1C3 (stereo not drawn) [Compound 213, 3-adamantan-2-yl-5-(5-bromo-1H-indol-2-ylmethylene)-2-thioxo-thiazolidin-4-one] | < 100 nM | 
COc1ccc(-c2ccc(/C=C3\SC(=S)N(C4C5CC6CC(C5)CC4C6)C3=O)o2)cc1C(=O)O (stereo not drawn) [Compound 34] | < 100 nM | 
Cn1c(/C=C2\SC(=S)N(C3CC4CCC3C4)C2=O)cc(C#CCCCOC(=O)[C@H](CC(N)=O)NC(=O)OC(C)(C)C)c1-c1ccc(Cl)cc1 (stereo partly drawn) [Compound 272] | < 100 nM | 
COc1cc(OC)cc(-c2cc(CCCNC(=O)[C@H](CC(=O)OC(C)(C)C)NC(=O)OC(C)(C)C)c(/C=C3\SC(=S)N(C4CC5CCC4C5)C3=O)o2)c1 (stereo partly drawn) [Compound 158] | < 100 nM | 

Structure (SMILES) | EC50 (MDCK) | EC50
COc1cc(OCC(=O)O)cc(-c2ccc(/C=C3\SC(=S)N(C4C5CC6CC(C5)CC4C6)C3=O)o2)c1 (stereo not drawn) [Compound 38] | < 100 nM | 
Cn1c(-c2ccc(Cl)cc2)cc(CCCCCO)c1/C=C1\SC(=S)N(C2C3CC4CC(C3)CC2C4)C1=O (stereo not drawn) [Compound 261] | < 100 nM | 
O=C1/C(=C/c2oc(-c3ccc(OC(F)(F)F)cc3)cc2CCCCCO)SC(=S)N1C1C2CC3CC(C2)CC1C3 (stereo not drawn) [Compound 339] | < 100 nM | 
COC(=O)c1cc(-c2ccc(/C=C3\SC(=S)N(C4C5CC6CC(C5)CC4C6)C3=O)o2)ccc1OC (stereo not drawn) [Compound 13] | < 100 nM | 
COc1cccc(-c2cc(CCCO)c(/C=C3\SC(=S)N(C4C5CC6CC(C5)CC4C6)C3=O)[nH]2)c1 (stereo not drawn) [Compound 233] |  | < 100 nM
COc1cc(OC)cc(-c2ccc(/C=C3\SC(=S)N(C4C5CC6CC(C5)CC4C6)C3=O)[nH]2)c1 (stereo not drawn) [Compound 59] | < 100 nM | 
O=C1/C(=C/c2ccco2)SC(=S)N1C1CCCCC1 [Compound 220] | 250 to 1000 nM | 
Cn1c(/C=C2\SC(=S)N(C3CC4CCC3C4)C2=O)cc(C#CCCCO)c1-c1ccc(Cl)cc1 (stereo not drawn) [Compound 265] | < 100 nM | 
O=C1/C(=C/c2oc(-c3ccc(Cl)cc3)cc2CCCO)SC(=S)N1C1C2CC3CC(C2)CC1C3 (stereo not drawn) [Compound 100] | < 100 nM | 
O=C1/C(=C/c2ncc(-c3ccccc3)o2)SC(=S)N1C1CCCCCCC1 [Compound 66] | < 100 nM | 
O=C(O)c1ccc(-c2ccc(/C=C3\SC(=S)N(C4CC5CCC4C5)C3=O)o2)cc1 (stereo not drawn) [Compound 4] | < 100 nM | 
COc1cc(OC)cc(-c2cc(CCC(=O)O)c(/C=C3\SC(=S)N(C4CC5CCC4C5)C3=O)o2)c1 (stereo not drawn) [Compound 132] | < 100 nM | 
CCOC(=O)c1c(F)ccc(-c2ccc(/C=C3\SC(=S)N(C4CCCCCCC4)C3=O)o2)c1F [Compound 46] | < 100 nM | 
O=C1/C(=C/c2c[nH]c3ccccc23)SC(=S)N1C1CC2CCC1C2 (stereo not drawn) [Compound 216, (Z)-5-((1H-indol-3-yl)methylene)-3-(bicyclo[2.2.1]heptan-2-yl)-2-thioxothiazolidin-4-one] | < 100 nM | 
O=C1/C(=C/c2oc(-c3cccc(F)c3)cc2CCCCCO)SC(=S)N1C1C2CC3CC(C2)CC1C3 (stereo not drawn) [Compound 344] | < 100 nM | 
O=C1/C(=C/c2ccco2)SC(=S)N1C1CCCCCC1 [Compound 219, (Z)-3-cycloheptyl-5-(furan-2-ylmethylene)-2-thioxothiazolidin-4-one] | 250 to 1000 nM | 
CC(C)(C)OC(=O)N[C@@H](CC(N)=O)C(=O)OCCCC#Cc1cc(-c2cccc(Cl)c2)sc1/C=C1\SC(=S)N(C2CC3CCC2C3)C1=O (stereo partly drawn) [Compound 311] | < 100 nM | 
O=C1/C(=C/c2sc(-c3ccc(Cl)cc3)cc2-c2ccc(Cl)cc2)SC(=S)N1C1CC2CCC1C2 (stereo not drawn) [Compound 274] | < 100 nM | 
O=C1/C(=C/c2ccc(-c3ccc(Cl)cc3)o2)SC(=S)N1C1CCCCC1 [Compound 47] | < 100 nM | 
COC(=O)COc1ccc2c(O)c(-c3ccc(/C=C4\SC(=S)N(C5C6CC7CC(C6)CC5C7)C4=O)o3)c(=O)oc2c1 (stereo not drawn) [Compound 319] | < 100 nM | 
COc1cccc(-c2c(C#CCCCO)cc(/C=C3\SC(=S)N(C4CC5CCC4C5)C3=O)n2C)c1 (stereo not drawn) [Compound 266] | < 100 nM | 
COc1ccc2c(O)c(-c3ccc(/C=C4\SC(=S)N(C5C6CC7CC(C6)CC5C7)C4=O)o3)c(=O)oc2c1 (stereo not drawn) [Compound 74] | 100 to 250 nM | 
